Measurements as given in ChEMBL document CHEMBL4270580, “Syntheses of C-ring modified dehydroabietylamides and their cytotoxic activity” (Eur J Med Chem, 2018).

How the values were obtained:
[1] = test system: FaDu; experiment: Cytotoxicity against human FADU cells after 96 hrs by sulforhodamine-B assay; assay type: functional, cell-based
[2] = test system: A2780; experiment: Cytotoxicity against human A2780 cells after 96 hrs by sulforhodamine-B assay; assay type: functional, cell-based
[3] = test system: HT-29; experiment: Cytotoxicity against human HT-29 cells after 96 hrs by sulforhodamine-B assay; assay type: functional, cell-based
[4] = test system: MCF7; experiment: Cytotoxicity against human MCF7 cells after 96 hrs by sulforhodamine-B assay; assay type: functional, cell-based
[5] = test system: SW-1736; experiment: Cytotoxicity against human SW1736 cells after 96 hrs by sulforhodamine-B assay; assay type: functional, cell-based
[6] = test system: NIH3T3; experiment: Cytotoxicity against mouse NIH/3T3 cells after 96 hrs by sulforhodamine-B assay; assay type: cell-based
[7] = Selectivity index, ratio of EC50 for mouse NIH/3T3 cells to EC50 for human MCF7 cells; assay type: toxicity; conditions: NIH/3T3 cells and MCF7 cells, read-out: Ratio EC50
[8] = Homo sapiens, FaDu, 96 h, read-out: EC50
[9] = Homo sapiens, A2780, 96 h, read-out: EC50
[10] = Homo sapiens, HT-29, 96 h, read-out: EC50
[11] = Homo sapiens, MCF7, 96 h, read-out: EC50
[12] = Homo sapiens, SW-1736, 96 h, read-out: EC50
[13] = Mus musculus, NIH3T3, 96 h, read-out: EC50

## COc1ccc(C(=O)NC[C@]2(C)CCC[C@]3(C)c4ccc(C(C)C)cc4CC[C@@H]23)cc1
[1]; [8]
  EC50: 17.3 µM
[2]; [9]
  EC50: 9.1 µM
[3]; [10]
  EC50: 10.4 µM
[4]; [11]
  EC50: 4.5 µM
[5]; [12]
  EC50: 11.2 µM
[6]; [13]
  EC50: 22.8 µM
[7]
  selectivity ratio: 8.8

## CC(=O)Oc1cc2c(cc1C(C)C)CC[C@H]1[C@](C)(CNC(=O)c3ccncc3)CCC[C@]21C
[1]; [8]
  EC50: 12.4 µM
[2]; [9]
  EC50: 14.4 µM
[3]; [10]
  EC50: 15.3 µM
[4]; [11]
  EC50: 5.7 µM
[5]; [12]
  EC50: 12.8 µM
[6]; [13]
  EC50: 29.5 µM

## CC(C)c1cc2c(cc1O)[C@@]1(C)CCC[C@@](C)(CNC(=O)c3ccc(O)cc3)[C@@H]1CC2
[1]; [8]
  EC50: > 30 µM
[2]; [9]
  EC50: > 30 µM
[3]; [10]
  EC50: > 30 µM
[4]; [11]
  EC50: > 30 µM
[5]; [12]
  EC50: > 30 µM
[6]; [13]
  EC50: > 30 µM

## CC(C)c1ccc2c(c1)CC[C@H]1[C@](C)(CNC(=O)c3ccncc3)CCC[C@]21C
[1]; [8]
  EC50: 14.4 µM
[2]; [9]
  EC50: 9.8 µM
[3]; [10]
  EC50: 10.7 µM
[4]; [11]
  EC50: 7.9 µM
[5]; [12]
  EC50: 14.2 µM
[6]; [13]
  EC50: 16.9 µM

## Cc1ccc(C(=O)NC[C@]2(C)CCC[C@]3(C)c4cc(O)c(C(C)C)cc4CC[C@@H]23)cc1
[1]; [8]
  EC50: 12.2 µM
[2]; [9]
  EC50: 10 µM
[3]; [10]
  EC50: 17.2 µM
[4]; [11]
  EC50: 8.5 µM
[5]; [12]
  EC50: 7 µM
[6]; [13]
  EC50: 16.8 µM

## CC(C)c1cc2c(cc1O)[C@@]1(C)CCC[C@@](C)(CNC(=O)c3ccc(Cl)cc3)[C@@H]1CC2
[1]; [8]
  EC50: 21.9 µM
[2]; [9]
  EC50: 6.6 µM
[3]; [10]
  EC50: 10.5 µM
[4]; [11]
  EC50: 5 µM
[5]; [12]
  EC50: 10.2 µM
[6]; [13]
  EC50: 16 µM

## CC(=O)Oc1cc2c(cc1C(C)C)CC[C@H]1[C@](C)(CNC(=O)c3ccc(C)cc3)CCC[C@]21C
[1]; [8]
  EC50: 12.8 µM
[2]; [9]
  EC50: 19.4 µM
[3]; [10]
  EC50: 26.7 µM
[4]; [11]
  EC50: 11.5 µM
[5]; [12]
  EC50: 10.7 µM
[6]; [13]
  EC50: > 30 µM

## CC(=O)Oc1cc2c(cc1C(C)C)CC[C@H]1[C@](C)(CN)CCC[C@]21C
[1]; [8]
  EC50: 13.1 µM
[2]; [9]
  EC50: 20 µM
[3]; [10]
  EC50: 10.1 µM
[4]; [11]
  EC50: 10.7 µM
[5]; [12]
  EC50: 18.3 µM
[6]; [13]
  EC50: > 30 µM

## CC(C)c1cc2c(cc1O)[C@@]1(C)CCC[C@@](C)(CN)[C@@H]1CC2
[1]; [8]
  EC50: 11.5 µM
[2]; [9]
  EC50: 17.3 µM
[3]; [10]
  EC50: 9.5 µM
[4]; [11]
  EC50: 8.9 µM
[5]; [12]
  EC50: 13.6 µM
[6]; [13]
  EC50: 22 µM

## CC(=O)Oc1cc2c(cc1C(C)C)CC[C@H]1[C@](C)(CNC(=O)CCCC[C@H]3SCC4NC(=O)NC43)CCC[C@]21C (some centres undefined)
[1]; [8]
  EC50: > 30 µM
[2]; [9]
  EC50: > 30 µM
[3]; [10]
  EC50: > 30 µM
[4]; [11]
  EC50: > 30 µM
[5]; [12]
  EC50: > 30 µM
[6]; [13]
  EC50: > 30 µM

## CC(C)c1cc2c(cc1O)[C@@]1(C)CCC[C@@](C)(CNC(=O)c3ccncc3)[C@@H]1CC2
[1]; [8]
  EC50: 18.8 µM
[2]; [9]
  EC50: 12.9 µM
[3]; [10]
  EC50: 19 µM
[4]; [11]
  EC50: 4.3 µM
[5]; [12]
  EC50: 27.3 µM
[6]; [13]
  EC50: 24.2 µM
[7]
  selectivity ratio: 6.2

## CC(C)c1ccc2c(c1)CC[C@H]1[C@](C)(CNC(=O)CCCC[C@H]3SCC4NC(=O)NC43)CCC[C@]21C (some centres undefined)
[1]; [8]
  EC50: 24.5 µM
[2]; [9]
  EC50: 18.6 µM
[3]; [10]
  EC50: 15.5 µM
[4]; [11]
  EC50: 11.6 µM
[5]; [12]
  EC50: > 30 µM
[6]; [13]
  EC50: 15.7 µM

## CC(C)c1ccc2c(c1)CC[C@H]1[C@](C)(CNC(=O)c3ccc(Cl)cc3)CCC[C@]21C
[1]; [8]
  EC50: > 30 µM
[2]; [9]
  EC50: > 30 µM
[3]; [10]
  EC50: > 30 µM
[4]; [11]
  EC50: > 30 µM
[5]; [12]
  EC50: > 30 µM
[6]; [13]
  EC50: > 30 µM

## CC(=O)Oc1cc2c(cc1C(C)C)CC[C@H]1[C@](C)(CNC(=O)c3ccc(Cl)cc3)CCC[C@]21C
[1]; [8]
  EC50: 14.4 µM
[2]; [9]
  EC50: 5 µM
[3]; [10]
  EC50: 11.7 µM
[4]; [11]
  EC50: 6.1 µM
[5]; [12]
  EC50: 15.3 µM
[6]; [13]
  EC50: > 30 µM

## COc1ccc(C(=O)NC[C@]2(C)CCC[C@]3(C)c4cc(O)c(C(C)C)cc4CC[C@@H]23)cc1
[1]; [8]
  EC50: 20 µM
[2]; [9]
  EC50: 13.2 µM
[3]; [10]
  EC50: 13.5 µM
[4]; [11]
  EC50: 11.7 µM
[5]; [12]
  EC50: 16.1 µM
[6]; [13]
  EC50: 23.2 µM

## CC(C)c1ccc2c(c1)CC[C@H]1[C@](C)(CNC(=O)c3ccccc3)CCC[C@]21C
[1]; [8]
  EC50: > 30 µM
[2]; [9]
  EC50: > 30 µM
[3]; [10]
  EC50: > 30 µM
[4]; [11]
  EC50: > 30 µM
[5]; [12]
  EC50: > 30 µM
[6]; [13]
  EC50: > 30 µM

## Cc1ccc(C(=O)NC[C@]2(C)CCC[C@]3(C)c4ccc(C(C)C)cc4CC[C@@H]23)cc1
[1]; [8]
  EC50: 18.9 µM
[2]; [9]
  EC50: 12.5 µM
[3]; [10]
  EC50: 22.8 µM
[4]; [11]
  EC50: 10.4 µM
[5]; [12]
  EC50: 14.2 µM
[6]; [13]
  EC50: 13.5 µM

## CC(C)c1cc2c(cc1O)[C@@]1(C)CCC[C@@](C)(CNC(=O)c3ccccc3)[C@@H]1CC2
[1]; [8]
  EC50: 14.8 µM
[2]; [9]
  EC50: 12.5 µM
[3]; [10]
  EC50: 16.2 µM
[4]; [11]
  EC50: 4.8 µM
[5]; [12]
  EC50: 11.5 µM
[6]; [13]
  EC50: 18.1 µM

## CC(C)c1cc2c(cc1O)[C@@]1(C)CCC[C@@](C)(CNC(=O)CCCC[C@H]3SCC4NC(=O)NC43)[C@@H]1CC2 (some centres undefined)
[1]; [8]
  EC50: > 30 µM
[2]; [9]
  EC50: > 30 µM
[3]; [10]
  EC50: > 30 µM
[4]; [11]
  EC50: > 30 µM
[5]; [12]
  EC50: > 30 µM
[6]; [13]
  EC50: > 30 µM

## COc1ccc(C(=O)NC[C@]2(C)CCC[C@]3(C)c4cc(OC(C)=O)c(C(C)C)cc4CC[C@@H]23)cc1
[1]; fadu
  EC50: Nd(Insoluble)
[2]; a2780
  EC50: Nd(Insoluble)
[3]; ht-29
  EC50: Nd(Insoluble)
[4]; mcf7
  EC50: Nd(Insoluble)
[5]; sw-1736
  EC50: Nd(Insoluble)
[6]; nih3t3
  EC50: Nd(Insoluble)

## CC(C)c1ccc2c(c1)CC[C@H]1[C@](C)(CNC(=O)c3ccc(O)cc3)CCC[C@]21C
[1]; [8]
  EC50: 14.1 µM
[2]; [9]
  EC50: 8.7 µM
[3]; [10]
  EC50: 8.5 µM
[4]; [11]
  EC50: 8 µM
[5]; [12]
  EC50: 13 µM
[6]; [13]
  EC50: 6.9 µM

## CC(C)c1ccc2c(c1)CC[C@H]1[C@](C)(CN)CCC[C@]21C
[1]; [8]
  EC50: 3.9 µM
[2]; [9]
  EC50: 3.8 µM
[3]; [10]
  EC50: 2.1 µM
[4]; [11]
  EC50: 3 µM
[5]; [12]
  EC50: 4.2 µM
[6]; [13]
  EC50: 2.4 µM
[7]
  selectivity ratio: 0.8

## CC(=O)Oc1ccc(C(=O)NC[C@]2(C)CCC[C@]3(C)c4cc(OC(C)=O)c(C(C)C)cc4CC[C@@H]23)cc1
[1]; [8]
  EC50: 20.2 µM
[2]; [9]
  EC50: 17.9 µM
[3]; [10]
  EC50: 11.2 µM
[4]; [11]
  EC50: 10.5 µM
[5]; [12]
  EC50: 17.2 µM
[6]; [13]
  EC50: 21.4 µM

## C=C(C)[C@@H]1CC[C@]2(C(=O)O)CC[C@]3(C)[C@H](CC[C@@H]4[C@@]5(C)CC[C@H](O)C(C)(C)[C@@H]5CC[C@]43C)[C@@H]12 [BETULINIC ACID]
[1]; [8]
  EC50: 10.7 µM
[2]; [9]
  EC50: 9.7 µM
[3]; [10]
  EC50: 16 µM
[4]; [11]
  EC50: 10.6 µM
[5]; [12]
  EC50: 14.8 µM
[6]; [13]
  EC50: 12.9 µM

## CC(C)c1cc2c(cc1OC(=O)c1ccccc1)[C@@]1(C)CCC[C@@](C)(CNC(=O)c3ccccc3)[C@@H]1CC2
[1]; [8]
  EC50: > 30 µM
[2]; [9]
  EC50: > 30 µM
[3]; [10]
  EC50: > 30 µM
[4]; [11]
  EC50: > 30 µM
[5]; [12]
  EC50: > 30 µM
[6]; [13]
  EC50: > 30 µM

## CC(=O)Oc1cc2c(cc1C(C)C)CC[C@H]1[C@](C)(CNC(=O)c3ccccc3)CCC[C@]21C
[1]; [8]
  EC50: 13.4 µM
[2]; [9]
  EC50: 8.1 µM
[3]; [10]
  EC50: 9 µM
[4]; [11]
  EC50: 4.5 µM
[5]; [12]
  EC50: 13.5 µM
[6]; [13]
  EC50: 17.3 µM
